Measurements taken from ChEMBL document CHEMBL3046084, “Synthesis and evaluation of p-N,N-dialkyl substituted chalcones as anti-cancer agents” (Med Chem Res, 2013).
Active and inactive are the calls of the source. No cut-off for these calls is given here.

Columns and labels:
MCF7 = assay: Anticancer activity against Homo sapiens (human) MCF7 cells assessed as inhibition of cell viability by SRB assay; format: functional, cell-based
[1] = test system: Mycolicibacterium smegmatis; assay: Anti-mycobacterial activity against Mycobacterium smegmatis assessed as diameter of growth inhibition zone at 10 mM; format: functional; conditions: read-out: DIZ
[2] = target: Beta-secretase 1 (Homo sapiens) (UniProt P56817); assay: Inhibition of Homo sapiens (human) recombinant BACE1 using FRET peptide Abz-YIWDEIDLMVLD-DNP as substrate at 50 uM preincubated with enzyme for 30 min prior to substrate addition measured by plate reader analysis
Chain of Beta-secretase 1 (Homo sapiens) (P56817 whole entry): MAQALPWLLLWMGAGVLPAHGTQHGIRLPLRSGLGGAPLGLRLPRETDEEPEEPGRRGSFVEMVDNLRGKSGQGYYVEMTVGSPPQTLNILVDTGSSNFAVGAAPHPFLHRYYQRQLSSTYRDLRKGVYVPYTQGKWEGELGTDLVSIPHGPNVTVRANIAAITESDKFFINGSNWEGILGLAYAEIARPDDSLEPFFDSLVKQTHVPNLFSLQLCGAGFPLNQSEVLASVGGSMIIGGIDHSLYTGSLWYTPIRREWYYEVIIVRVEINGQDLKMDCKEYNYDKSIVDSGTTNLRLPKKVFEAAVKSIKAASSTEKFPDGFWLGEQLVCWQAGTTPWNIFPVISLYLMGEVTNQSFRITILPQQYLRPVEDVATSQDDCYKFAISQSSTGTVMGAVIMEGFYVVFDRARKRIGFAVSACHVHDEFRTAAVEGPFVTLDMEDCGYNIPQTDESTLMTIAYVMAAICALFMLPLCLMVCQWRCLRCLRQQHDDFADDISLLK

SMILES: O=C(/C=C/c1ccc(N2CCN(CCO)CC2)cc1)c1ccc(Cl)cc1
- IC50 (MCF7): 50 µM

SMILES: O=C(/C=C/c1ccc(N2CCN(CCO)CC2)cc1)c1ccc(Br)cc1
- IC50 (MCF7): 50 µM

SMILES: O=C(/C=C/c1ccc(N(Cc2ccccc2)Cc2ccccc2)cc1)c1ccco1
- zone of inhibition at 10000 µM [1]: 15 mm

SMILES: COc1cc(C(=O)/C=C/c2ccc(N(Cc3ccccc3)Cc3ccccc3)cc2)cc(OC)c1OC
- inhibition [2]: Active
